Experimental findings from ChEMBL document CHEMBL1140388, “Privileged structure-based ligands for melanocortin receptors-tetrahydroquinolines, indoles, and aminotetralines” (Bioorg Med Chem Lett, 2005) are described below.

Test [1] has as its target Melanocortin receptor 4 (Homo sapiens, UniProt P32245). As to the kind of experiment: Inhibition of [125I]-NDP MSH binding towards human melanocortin 4 receptor.
Test [2] addresses Melanocortin receptor 3 (Homo sapiens, UniProt P41968). Briefly: Inhibition of [125I]-NDP MSH binding towards human melanocortin 3 receptor.
For test [3], the target named is Melanocortin receptor 5 (Homo sapiens, UniProt P33032). Briefly: Inhibition of [125I]-NDP MSH binding towards human melanocortin 5 receptor.
Sequence of Melanocortin receptor 5 (P33032 whole entry): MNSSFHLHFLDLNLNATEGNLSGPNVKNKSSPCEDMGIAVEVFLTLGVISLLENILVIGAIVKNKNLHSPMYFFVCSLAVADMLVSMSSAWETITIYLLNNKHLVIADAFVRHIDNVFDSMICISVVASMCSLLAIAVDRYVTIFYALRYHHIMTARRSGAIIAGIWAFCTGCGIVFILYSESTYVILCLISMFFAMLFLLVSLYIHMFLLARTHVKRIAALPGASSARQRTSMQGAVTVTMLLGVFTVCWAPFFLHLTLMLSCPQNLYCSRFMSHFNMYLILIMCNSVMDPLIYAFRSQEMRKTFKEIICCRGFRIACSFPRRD
In test [4] the target is Melanocortin receptor (M1 and M4) (Homo sapiens) (UniProt P32245+Q01726). As to the kind of experiment: Binding selectivity across hMC 4 and hMC 1 by determining the competitive inhibition of [125 I]NDP MSH binding. Format: protein assay.
Test [5] deals with Melanocortin receptor (M3 and M4) (Homo sapiens) (UniProt P32245+P41968). Briefly: Binding selectivity across hMC 4 and hMC 3 by determining the competitive inhibition of [125 I]NDP MSH binding. Format: protein assay.
Test [6] has as its target Melanocortin receptor (M4 and M5) (Homo sapiens) (UniProt P32245+P33032). Briefly: Binding selectivity across hMC 4 and hMC 5 by determining the competitive inhibition of [125 I]NDP MSH binding. The test is classed as protein assay.
Test [7] deals with Melanocyte-stimulating hormone receptor (Homo sapiens, UniProt Q01726). Briefly: Inhibition of [125I]-NDP MSH binding towards human melanocortin 1 receptor.
Sequence of Melanocyte-stimulating hormone receptor (Q01726 whole entry): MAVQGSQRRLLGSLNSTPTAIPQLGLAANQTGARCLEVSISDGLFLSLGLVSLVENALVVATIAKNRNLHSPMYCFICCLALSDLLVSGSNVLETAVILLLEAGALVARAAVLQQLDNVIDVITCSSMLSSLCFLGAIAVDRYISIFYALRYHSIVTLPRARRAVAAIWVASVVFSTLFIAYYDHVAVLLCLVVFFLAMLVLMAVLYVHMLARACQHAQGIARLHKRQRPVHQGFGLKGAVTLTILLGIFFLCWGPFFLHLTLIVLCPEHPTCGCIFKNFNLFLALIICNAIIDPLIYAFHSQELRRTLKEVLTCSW

Sequence of Melanocortin receptor 3 (P41968 whole entry): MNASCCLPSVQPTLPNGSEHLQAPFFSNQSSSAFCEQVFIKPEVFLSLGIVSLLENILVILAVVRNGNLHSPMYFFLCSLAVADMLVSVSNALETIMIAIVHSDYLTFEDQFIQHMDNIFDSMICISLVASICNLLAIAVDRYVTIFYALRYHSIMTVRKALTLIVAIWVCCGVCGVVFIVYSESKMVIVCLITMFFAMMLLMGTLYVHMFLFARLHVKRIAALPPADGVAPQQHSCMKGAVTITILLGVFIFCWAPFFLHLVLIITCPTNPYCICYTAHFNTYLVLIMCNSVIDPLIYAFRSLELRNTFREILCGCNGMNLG
Sequence of Melanocortin receptor 4 (P32245 whole entry): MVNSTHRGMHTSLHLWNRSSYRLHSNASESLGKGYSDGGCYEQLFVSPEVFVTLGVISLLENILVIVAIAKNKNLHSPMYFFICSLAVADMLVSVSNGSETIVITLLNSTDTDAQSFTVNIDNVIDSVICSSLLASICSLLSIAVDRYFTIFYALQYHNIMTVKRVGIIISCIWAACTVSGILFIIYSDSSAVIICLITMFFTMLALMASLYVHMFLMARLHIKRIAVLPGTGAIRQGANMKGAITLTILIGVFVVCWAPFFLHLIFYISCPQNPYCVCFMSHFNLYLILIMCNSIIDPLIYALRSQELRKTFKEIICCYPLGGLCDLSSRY
Sequence of Melanocortin receptor (M4 and M5) (Homo sapiens) (P32245 whole entry, looked up): as the sequence (P32245 whole entry) above
Sequence of Melanocortin receptor (M4 and M5) (Homo sapiens) (P33032 whole entry, looked up): as the sequence (P33032 whole entry) above

Compound `CS(=O)(=O)N1CCc2cccc(N3CCN(C(=O)C(Cc4ccc(Cl)cc4)NC(=O)[C@H]4Cc5ccccc5CN4)CC3)c21` (stereo partly drawn) yielded a Ki in test [1] of 900 nM.
In test [1], `CN(C)[C@H]1CCc2cccc(N3CCN(C(=O)[C@@H](Cc4ccc(Cl)cc4)NC(=O)[C@H]4Cc5ccccc5CN4)CC3)c2C1` showed a Ki of 50 nM. This Ki is about 18-fold lower than that of the compound before.
On to `CC(=O)N1CCCc2cccc(N3CCN(C(=O)[C@@H](Cc4ccc(Cl)cc4)NC(=O)[C@H]4Cc5ccccc5CN4)CC3)c21`, for which the Ki came out at 500 nM in test [2], 7700 nM in test [1], 4000 nM in test [3] and 20000 nM in test [7]. The Binding selectivity in test [4] was determined as 23; in test [5], 0.6; in test [6] it was 5.
`O=C(N[C@H](Cc1ccc(Cl)cc1)C(=O)N1CCN(c2cccc3c2NCCC3)CC1)[C@H]1Cc2ccccc2CN1` registered a Ki in test [1] of 1600 nM.
On to `CN(C)C1CCc2cccc(N3CCN(C(=O)[C@@H](Cc4ccc(Cl)cc4)NC(=O)[C@H]4Cc5ccccc5CN4)CC3)c2C1` (stereo partly drawn), for which the Ki was 8200 nM in test [2], 70 nM in test [1], 280 nM in test [3] and 4000 nM in test [7]. Besides, the Binding selectivity in test [4] was found to be 72; in test [5], 164; in test [6], 5.6.
Consider `CS(=O)(=O)N1CCc2c(cccc2N2CCN(C(=O)[C@@H](Cc3ccc(Cl)cc3)NC(=O)[C@H]3Cc4ccccc4CN3)CC2)C1`, for which the affinity in test [1], expressed as Ki, was 3900 nM.
In test [1], `CN(C)[C@@H]1CCc2cccc(N3CCN(C(=O)[C@@H](Cc4ccc(Cl)cc4)NC(=O)[C@H]4Cc5ccccc5CN4)CC3)c2C1` gave a Ki of 80 nM. This Ki lies about 49-fold lower than the previous one.
In test [1], `CCN1CCc2cccc(N3CCN(C(=O)[C@@H](Cc4ccc(Cl)cc4)NC(=O)[C@H]4Cc5ccccc5CN4)CC3)c2C1` returned a Ki of 190 nM.
The compound `CN1CCc2cccc(N3CCN(C(=O)[C@@H](Cc4ccc(Cl)cc4)NC(=O)[C@H]4Cc5ccccc5CN4)CC3)c2C1` gave a Ki in test [1] of 280 nM.
Compound `CN(C1CCc2cccc(N3CCN(C(=O)[C@@H](Cc4ccc(Cl)cc4)NC(=O)[C@H]4Cc5ccccc5CN4)CC3)c2C1)S(C)(=O)=O` (stereo partly drawn) displayed a Ki in test [1] of 530 nM.
As for `CC(C)S(=O)(=O)N1CCc2cccc(N3CCN(C(=O)[C@@H](Cc4ccc(Cl)cc4)NC(=O)[C@H]4Cc5ccccc5CN4)CC3)c2C1`, in test [1], the affinity corresponds to a Ki of 950 nM.
The compound `CS(=O)(=O)N1CCc2cccc(N3CCN(C(=O)[C@@H](Cc4ccc(Cl)cc4)NC(=O)[C@H]4Cc5ccccc5CN4)CC3)c2C1` displayed a Ki in test [1] of 600 nM.
The compound `CCN1CCc2c(cccc2N2CCN(C(=O)[C@@H](Cc3ccc(Cl)cc3)NC(=O)[C@H]3Cc4ccccc4CN3)CC2)C1` had a Ki in test [1] of 700 nM.
In test [1], `NC1CCc2cccc(N3CCN(C(=O)[C@@H](Cc4ccc(Cl)cc4)NC(=O)[C@H]4Cc5ccccc5CN4)CC3)c2C1` (stereo partly drawn) had a Ki of 240 nM. This Ki is about 2.9-fold lower than that of the compound before.
For the compound `CC(=O)NC1CCc2cccc(N3CCN(C(=O)[C@@H](Cc4ccc(Cl)cc4)NC(=O)[C@H]4Cc5ccccc5CN4)CC3)c2C1` (stereo partly drawn), the Ki in test [1] is 410 nM.
Compound `CNC1CCc2cccc(N3CCN(C(=O)[C@@H](Cc4ccc(Cl)cc4)NC(=O)[C@H]4Cc5ccccc5CN4)CC3)c2C1` (stereo partly drawn) had a Ki in test [1] of 150 nM.
In test [1], `CC(=O)N1CCc2cccc(N3CCN(C(=O)[C@@H](Cc4ccc(Cl)cc4)NC(=O)[C@H]4Cc5ccccc5CN4)CC3)c2C1` came in with a Ki of 500 nM.
As to `O=C(N[C@H](Cc1ccc(Cl)cc1)C(=O)N1CCN(c2cccc3c2CN(S(=O)(=O)c2ccccc2)CC3)CC1)[C@H]1Cc2ccccc2CN1`, the Ki worked out at 1200 nM in test [2], 2500 nM in test [1], 700 nM in test [3] and 7000 nM in test [7]. The Binding selectivity in test [4] came out at 23; in test [5], 4; in test [6] it was 2.6.
In test [1], `CS(=O)(=O)N1CCCc2cccc(N3CCN(C(=O)C(Cc4ccc(Cl)cc4)NC(=O)[C@H]4Cc5ccccc5CN4)CC3)c21` (stereo partly drawn) displayed a Ki of 900 nM.
In the case of `CCN(CC)C1CCc2cccc(N3CCN(C(=O)[C@@H](Cc4ccc(Cl)cc4)NC(=O)[C@H]4Cc5ccccc5CN4)CC3)c2C1` (stereo partly drawn), affinity in test [1] was put at a Ki of 170 nM.
As for `O=C(N[C@H](Cc1ccc(Cl)cc1)C(=O)N1CCN(c2cccc3cc[nH]c23)CC1)[C@H]1Cc2ccccc2CN1`, in test [1], the Ki is 4800 nM.
In turn, `CCCN(CCC)C1CCc2cccc(N3CCN(C(=O)[C@@H](Cc4ccc(Cl)cc4)NC(=O)[C@H]4Cc5ccccc5CN4)CC3)c2C1` (stereo partly drawn) gave a Ki in test [1] of 180 nM.
In test [1], `O=C(N[C@H](Cc1ccc(Cl)cc1)C(=O)N1CCN(c2cccc3c2NCC3)CC1)[C@H]1Cc2ccccc2CN1` had a Ki of 2100 nM.
With `O=C(N[C@H](Cc1ccc(Cl)cc1)C(=O)N1CCN(c2cccc3c2CCCC3)CC1)[C@H]1Cc2ccccc2CN1`, the Ki in test [2] worked out at 1200 nM; in test [1] it was 4200 nM; in test [3] it was 260 nM; in test [7], 3000 nM. Also, the Binding selectivity in test [4] is 47; in test [5], 181; in test [6] it was 3.8.

Broadly, the Ki is the dissociation constant of the complex between target and ligand, obtained from inhibition or displacement.
